Data: the NIST ThermoML archive (doi:10.1016/j.jct.2015.07.042)
Numbers after ± are expanded uncertainties.

Assay: activity coefficient (dimensionless); of the first substance listed, at infinite dilution; xn = mol fraction of the nth substance listed
Conditions: 101 kPa, Liquid, Chromatography, x1 = 0

| Compound | activity coefficient (398.15 K) | activity coefficient (408.15 K) | activity coefficient (418.15 K) | activity coefficient (428.15 K) | activity coefficient (358.15 K) | activity coefficient (368.15 K) | activity coefficient (378.15 K) | activity coefficient (388.15 K) |
| --- | --- | --- | --- | --- | --- | --- | --- | --- |
| CC(C)(C)O [2-methylpropan-2-ol] + CCCCn1cc[n+](C)c1.COP(=O)([O-])OC | 0.419 ± 0.035 | 0.471 ± 0.037 | 0.527 ± 0.039 | 0.592 ± 0.042 | – | – | – | – |
| CC(C)(C)O [2-methylpropan-2-ol] + CCCCn1cc[n+](C)c1.CS(=O)(=O)[O-] | 1.28 ± 0.083 | 1.39 ± 0.09 | 1.48 ± 0.098 | 1.59 ± 0.11 | – | – | – | – |
| CC(C)(C)O [2-methylpropan-2-ol] + CCCCn1cc[n+](C)c1.[Cl-] | 0.987 ± 0.062 | 1.07 ± 0.067 | 1.16 ± 0.074 | 1.27 ± 0.082 | – | – | – | – |
| C=C(C)c1ccccc1 [(1-methylethenyl)benzene] + CCCCn1cc[n+](C)c1.COP(=O)([O-])OC | – | – | – | – | 4.57 ± 0.31 | 4.77 ± 0.33 | 4.98 ± 0.34 | 5.29 ± 0.36 |
| C=C(C)c1ccccc1 [(1-methylethenyl)benzene] + CCCCn1cc[n+](C)c1.CS(=O)(=O)[O-] | – | – | – | – | 6.43 ± 0.44 | 6.71 ± 0.46 | 6.96 ± 0.47 | 7.41 ± 0.51 |
| C=C(C)c1ccccc1 [(1-methylethenyl)benzene] + CCCCn1cc[n+](C)c1.[Cl-] | – | – | – | – | 9.01 ± 0.61 | 9.33 ± 0.64 | 9.83 ± 0.67 | 10.3 ± 0.71 |
| CC(C)=O [acetone] + CCCCn1cc[n+](C)c1.COP(=O)([O-])OC | – | – | – | – | 1.92 ± 0.13 | 1.96 ± 0.13 | 2.02 ± 0.14 | 2.1 ± 0.14 |
| CC(C)=O [acetone] + CCCCn1cc[n+](C)c1.CS(=O)(=O)[O-] | – | – | – | – | 2.06 ± 0.14 | 2.12 ± 0.14 | 2.22 ± 0.15 | 2.3 ± 0.16 |
| CC(C)=O [acetone] + CCCCn1cc[n+](C)c1.[Cl-] | – | – | – | – | 3.05 ± 0.21 | 3.12 ± 0.21 | 3.17 ± 0.22 | 3.27 ± 0.22 |
| CC#N [acetonitrile] + CCCCn1cc[n+](C)c1.COP(=O)([O-])OC | – | – | – | – | 0.88 ± 0.06 | 0.92 ± 0.06 | 0.95 ± 0.06 | 1 ± 0.06 |
| CC#N [acetonitrile] + CCCCn1cc[n+](C)c1.CS(=O)(=O)[O-] | – | – | – | – | 0.99 ± 0.06 | 1.03 ± 0.06 | 1.08 ± 0.07 | 1.12 ± 0.07 |
| CC#N [acetonitrile] + CCCCn1cc[n+](C)c1.[Cl-] | – | – | – | – | 1.12 ± 0.07 | 1.16 ± 0.07 | 1.21 ± 0.08 | 1.28 ± 0.08 |
| c1ccccc1 [benzene] + CCCCn1cc[n+](C)c1.COP(=O)([O-])OC | – | – | – | – | 2.33 ± 0.16 | 2.41 ± 0.16 | 2.49 ± 0.17 | 2.63 ± 0.18 |
| c1ccccc1 [benzene] + CCCCn1cc[n+](C)c1.CS(=O)(=O)[O-] | – | – | – | – | 3.08 ± 0.21 | 3.19 ± 0.22 | 3.29 ± 0.22 | 3.46 ± 0.24 |
| c1ccccc1 [benzene] + CCCCn1cc[n+](C)c1.[Cl-] | – | – | – | – | 4.51 ± 0.31 | 4.59 ± 0.31 | 4.72 ± 0.32 | 4.82 ± 0.33 |
| CCCCO [butan-1-ol] + CCCCn1cc[n+](C)c1.COP(=O)([O-])OC | 0.247 ± 0.03 | 0.271 ± 0.03 | 0.299 ± 0.031 | 0.324 ± 0.032 | – | – | – | – |
| CCCCO [butan-1-ol] + CCCCn1cc[n+](C)c1.CS(=O)(=O)[O-] | 0.937 ± 0.059 | 0.984 ± 0.062 | 1.02 ± 0.064 | 1.07 ± 0.068 | – | – | – | – |
| CCCCO [butan-1-ol] + CCCCn1cc[n+](C)c1.[Cl-] | 0.558 ± 0.04 | 0.594 ± 0.042 | 0.635 ± 0.044 | 0.68 ± 0.046 | – | – | – | – |
| CCC(C)O (configuration not stated) [butan-2-ol] + CCCCn1cc[n+](C)c1.COP(=O)([O-])OC | 0.327 ± 0.032 | 0.365 ± 0.033 | 0.406 ± 0.034 | 0.451 ± 0.036 | – | – | – | – |
| CCC(C)O (configuration not stated) [butan-2-ol] + CCCCn1cc[n+](C)c1.CS(=O)(=O)[O-] | 1.11 ± 0.071 | 1.18 ± 0.075 | 1.25 ± 0.081 | 1.33 ± 0.087 | – | – | – | – |
| CCC(C)O (configuration not stated) [butan-2-ol] + CCCCn1cc[n+](C)c1.[Cl-] | 0.749 ± 0.049 | 0.804 ± 0.052 | 0.865 ± 0.055 | 0.931 ± 0.059 | – | – | – | – |
| CCCC=O [butanal] + CCCCn1cc[n+](C)c1.COP(=O)([O-])OC | – | – | – | – | 2.66 ± 0.18 | 2.74 ± 0.19 | 2.82 ± 0.19 | 2.97 ± 0.2 |
| CCCC=O [butanal] + CCCCn1cc[n+](C)c1.CS(=O)(=O)[O-] | – | – | – | – | 3.33 ± 0.23 | 3.44 ± 0.23 | 3.58 ± 0.24 | 3.74 ± 0.25 |
| CCCC=O [butanal] + CCCCn1cc[n+](C)c1.[Cl-] | – | – | – | – | 5.24 ± 0.36 | 5.31 ± 0.36 | 5.43 ± 0.37 | 5.54 ± 0.38 |

| Compound | activity coefficient (398.15 K) | activity coefficient (408.15 K) | activity coefficient (418.15 K) | activity coefficient (428.15 K) | activity coefficient (358.15 K) | activity coefficient (368.15 K) | activity coefficient (378.15 K) | activity coefficient (388.15 K) |
| --- | --- | --- | --- | --- | --- | --- | --- | --- |
| C1CCCCCC1 [cycloheptane] + CCCCn1cc[n+](C)c1.COP(=O)([O-])OC | – | – | – | – | 15.1 ± 1 | 14.6 ± 1 | 14.3 ± 0.97 | 14 ± 0.96 |
| C1CCCCCC1 [cycloheptane] + CCCCn1cc[n+](C)c1.CS(=O)(=O)[O-] | – | – | – | – | 44.2 ± 3 | 43.3 ± 3 | 42.6 ± 2.9 | 42.2 ± 2.9 |
| C1CCCCCC1 [cycloheptane] + CCCCn1cc[n+](C)c1.[Cl-] | – | – | – | – | 62.7 ± 4.3 | 58.8 ± 4 | 55.4 ± 3.8 | 53.6 ± 3.7 |
| C1CCCCC1 [cyclohexane] + CCCCn1cc[n+](C)c1.COP(=O)([O-])OC | – | – | – | – | 12.3 ± 0.84 | 11.9 ± 0.81 | 11.6 ± 0.79 | 11.4 ± 0.78 |
| C1CCCCC1 [cyclohexane] + CCCCn1cc[n+](C)c1.CS(=O)(=O)[O-] | – | – | – | – | 35.2 ± 2.4 | 34.5 ± 2.4 | 33.9 ± 2.3 | 33.8 ± 2.3 |
| C1CCCCC1 [cyclohexane] + CCCCn1cc[n+](C)c1.[Cl-] | – | – | – | – | 84.2 ± 5.8 | 79 ± 5.4 | 73 ± 5 | 69.8 ± 4.8 |
| C1=CCCCC1 [cyclohexene] + CCCCn1cc[n+](C)c1.COP(=O)([O-])OC | – | – | – | – | 7.15 ± 0.49 | 7.13 ± 0.49 | 7.11 ± 0.48 | 7.11 ± 0.48 |
| C1=CCCCC1 [cyclohexene] + CCCCn1cc[n+](C)c1.CS(=O)(=O)[O-] | – | – | – | – | 18.4 ± 1.3 | 18.6 ± 1.3 | 18.7 ± 1.3 | 19 ± 1.3 |
| C1=CCCCC1 [cyclohexene] + CCCCn1cc[n+](C)c1.[Cl-] | – | – | – | – | 22.8 ± 1.6 | 22.3 ± 1.5 | 21.5 ± 1.5 | 21.3 ± 1.5 |
| C1CCCCCCC1 [cyclooctane] + CCCCn1cc[n+](C)c1.COP(=O)([O-])OC | – | – | – | – | 18.8 ± 1.3 | 18.2 ± 1.2 | 17.7 ± 1.2 | 17.3 ± 1.2 |
| C1CCCCCCC1 [cyclooctane] + CCCCn1cc[n+](C)c1.CS(=O)(=O)[O-] | – | – | – | – | 57.1 ± 3.9 | 55.7 ± 3.8 | 54.4 ± 3.7 | 53.6 ± 3.7 |
| C1CCCCCCC1 [cyclooctane] + CCCCn1cc[n+](C)c1.[Cl-] | – | – | – | – | 79.5 ± 5.5 | 75.4 ± 5.2 | 71.1 ± 4.9 | 68.6 ± 4.7 |
| C1CCCC1 [cyclopentane] + CCCCn1cc[n+](C)c1.COP(=O)([O-])OC | – | – | – | – | 8.76 ± 0.6 | 8.59 ± 0.59 | 8.41 ± 0.57 | 8.33 ± 0.57 |
| C1CCCC1 [cyclopentane] + CCCCn1cc[n+](C)c1.CS(=O)(=O)[O-] | – | – | – | – | 23.9 ± 1.6 | 23.7 ± 1.6 | 23.5 ± 1.6 | 23.3 ± 1.6 |
| C1CCCC1 [cyclopentane] + CCCCn1cc[n+](C)c1.[Cl-] | – | – | – | – | 38.7 ± 2.6 | 36.2 ± 2.5 | 33.5 ± 2.3 | 31.8 ± 2.2 |
| CCCCCCCCCC [decane] + CCCCn1cc[n+](C)c1.COP(=O)([O-])OC | – | – | – | – | 93.4 ± 6.4 | 88.5 ± 6.1 | 84.7 ± 5.8 | 81.6 ± 5.6 |
| CCCCCCCCCC [decane] + CCCCn1cc[n+](C)c1.CS(=O)(=O)[O-] | – | – | – | – | 371 ± 26 | 352 ± 24 | 340 ± 23 | 324 ± 22 |
| CCCCCCCCCC [decane] + CCCCn1cc[n+](C)c1.[Cl-] | – | – | – | – | 704 ± 48 | 638 ± 44 | 580 ± 40 | 560 ± 39 |
| CCOCC [diethyl ether] + CCCCn1cc[n+](C)c1.COP(=O)([O-])OC | – | – | – | – | 6.21 ± 0.42 | 6.3 ± 0.43 | 6.39 ± 0.44 | 6.48 ± 0.44 |
| CCOCC [diethyl ether] + CCCCn1cc[n+](C)c1.CS(=O)(=O)[O-] | – | – | – | – | 14.7 ± 1 | 14.9 ± 1 | 15 ± 1 | 15.3 ± 1.1 |
| CCOCC [diethyl ether] + CCCCn1cc[n+](C)c1.[Cl-] | – | – | – | – | 19.3 ± 1.3 | 18.9 ± 1.3 | 18.4 ± 1.3 | 18.4 ± 1.3 |
| CC(C)OC(C)C [diisopropyl ether] + CCCCn1cc[n+](C)c1.COP(=O)([O-])OC | – | – | – | – | 14.4 ± 0.98 | 14.3 ± 0.97 | 14.2 ± 0.97 | 14.1 ± 0.96 |
| CC(C)OC(C)C [diisopropyl ether] + CCCCn1cc[n+](C)c1.CS(=O)(=O)[O-] | – | – | – | – | 40.6 ± 2.8 | – | 40.8 ± 2.8 | 41.2 ± 2.8 |
